In US7495007B2, “Spiroindolinone derivatives” (Hoffmann-La Roche Inc., priority 2006, dated 2009):

Biological target: interaction between p53 and MDM2 proteins (recombinant GST-tagged MDM2, p53 peptide) (Homo sapiens, UniProt Q00987)
Assay: HTRF assay of inhibition of the p53-MDM2 interaction (GST-MDM2 binding to biotinylated p53 peptide)
Conditions: 0.02% BSA
Protocol: The ability of the compounds to inhibit the interaction between p53 and MDM2 proteins was measured by an HTRF (homogeneous time-resolved fluorescence) assay in which recombinant GST-tagged MDM2 binds to a peptide that resembles the MDM2-interacting region of p53 (Lane et al.). Binding of GST-MDM2 protein and p53-peptide (biotinylated on its N-terminal end) is registered by the FRET (fluorescence resonance energy transfer) between Europium (Eu)-labeled anti-GST antibody and streptavidin-conjugated Allophycocyanin (APC).
Test is performed in black flat-bottom 384-well plates (Costar) in a total volume of 40 uL containing: 90 nM biotinylate peptide, 160 ng/ml GST-MDM2, 20 nM streptavidin-APC (PerkinElmerWallac), 2 nM Eu-labeled anti-GST-antibody (PerkinElmerWallac), 0.2% bovine serum albumin (BSA), 1 mM dithiothreitol (DTT) and 20 mM Tris-borate saline (TBS) buffer as follows: Add 10 uL of GST-MDM2 (640 ng/ml working solution) in reaction buffer to each well. Add 10 uL diluted compounds (1:5 dilution in reaction buffer) to each well, mix by shaking. Add 20 uL biotinylated p53 peptide (180 nM working solution) in reaction buffer to each well and mix on shaker. Incubate at 37° C. for 1 h. Add 20 uL streptavidin-APC and Eu-anti-GST antibody mixture (6 nM Eu-anti-GST and 60 nM streptavidin-APC working solution) in TBS buffer with 0.2% BSA, shake at room temperature for 30 minutes and read using a TRF-capable plate reader at 665 and 615 nm (Victor 5, Perkin ElmerWallac). If not specified, the reagents were purchased from Sigma Chemical Co.

Chain of interaction between p53 and MDM2 proteins (recombinant GST-tagged MDM2, p53 peptide) (Q00987 whole entry): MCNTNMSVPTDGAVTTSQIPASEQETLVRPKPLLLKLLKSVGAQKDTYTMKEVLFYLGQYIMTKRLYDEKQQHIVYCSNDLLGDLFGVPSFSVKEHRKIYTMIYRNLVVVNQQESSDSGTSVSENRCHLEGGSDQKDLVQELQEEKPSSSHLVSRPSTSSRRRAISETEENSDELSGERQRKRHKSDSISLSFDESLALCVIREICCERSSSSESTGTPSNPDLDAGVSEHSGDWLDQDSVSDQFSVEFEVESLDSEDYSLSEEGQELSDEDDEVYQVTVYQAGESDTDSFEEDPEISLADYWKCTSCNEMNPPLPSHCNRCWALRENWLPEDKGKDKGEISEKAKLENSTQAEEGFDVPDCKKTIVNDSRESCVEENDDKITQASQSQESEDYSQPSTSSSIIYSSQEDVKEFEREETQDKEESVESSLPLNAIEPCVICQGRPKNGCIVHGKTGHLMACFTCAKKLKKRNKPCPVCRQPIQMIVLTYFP

| SMILES | IC50 [nM] |
| --- | --- |
| Cc1ccccc1[C@H]1N(CC(=O)O)C(=O)C[C@@H](c2cccc(Cl)c2)[C@]12C(=O)Nc1cc(Cl)ccc12 (racemic) [Example 31, (2′R,3R,4′S)-6-chloro-4′-(3-chlorophenyl)-1′-[(hydroxycarbonyl)-methyl]-2′-(2-methylphenyl)spiro[3H-indole-3,3′-piperidine]-2,6′(1H)-dione] | 372 |
| C[C@@H]1C(=O)N[C@H](c2cccc(Cl)c2)[C@@]2(C(=O)Nc3cc(Cl)ccc32)[C@@H]1c1cccc(Cl)c1 (racemic) [Example 20, (2′R,3R,4′S,5′S)-6-chloro-2′,4′-bis(3-chlorophenyl)-5′-methylspiro[3H-indole-3,3′-piperidine]-2,6′(1H)-dione] | 1810 |
| CCN1C(=O)C[C@@H](c2cccc(Cl)c2)[C@]2(C(=O)Nc3cc(Cl)ccc32)[C@H]1c1ccccc1C (racemic) [Example 26b, (2′R,3R,4′S)-6-chloro-4′-(3-chlorophenyl)-1′-ethyl-2′-(2-methylphenyl)spiro[3H-indole-3,3′-piperidine]-2,6′(1H)-dione] | 490 |
| O=C1C[C@H](C2CCCC2)[C@@]2(C(=O)Nc3cc(Cl)ccc32)[C@H](c2cccc(Cl)c2)N1 (racemic) [Example 5d, (2′S,3S,4′R)-6-chloro-2′-(3-chlorophenyl)-4′-cyclopentylspiro[3H-indole-3,3′-piperidine]-2,6′(1H)-dione] | 2430 |
| O=C1C[C@@H](c2cccc(Cl)c2)[C@]2(C(=O)Nc3cc(Cl)ccc32)[C@@H](c2ccccc2)N1 (racemic) [Example 14b, (2′R,3R,4′S)-6-chloro-4′-(3-chlorophenyl)-2′-phenylspiro[3H-indole-3,3′-piperidine]-2,6′(1H)-dione] | 440 |
